Test results published in patent US12528815B2, “5-amino-8-(4-pyridyl)-[1,2,4]triazolo[4,3-c]pyrimidin-3-one compounds for use against cancer” (Nxera Pharma UK Limited, priority 2020, dated 2026).

Experiments:
[1] = molecular target: T1, human adenosine A2A receptor (Homo sapiens, UniProt P29274); assay: Inhibition binding assay, human adenosine A2A receptor membranes, [3H]ZM241385; conditions: 1 nM [3H]ZM241385, HEK293-hA2A membranes, 25° C., 1 h; IC50 converted to Ki with Cheng-Prusoff; read-out: A2A pKi (converted)
T1 construct: expressed in transfected cells; host or cells: HEK293 cells infected with BacMam
Method in brief: (§1)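 Membranes from BacMam-infected HEK293 cells (0.2 μg A2A, 1.4 μg A1) incubated 1 h at 25° C with test compound and 1 nM [3H]ZM241385 (A2A; 50 mM Tris-HCl pH 7.4) or [3H]DPCPX (A1; plus 100 mM NaCl, 10 mM MgCl2). Nonspecific: 1 μM CGS15943 or DPCPX. Filtration, scintillation; IC50 converted to Ki via Cheng-Prusoff.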

[2] = molecular target: T2, human adenosine A1 receptor (Homo sapiens, UniProt P30542); assay: Inhibition binding assay, human adenosine A1 receptor membranes, [3H]DPCPX; conditions: 1 nM [3H]DPCPX, 25° C., 1 h; IC50 converted to Ki with Cheng-Prusoff; read-out: A1 pKi (converted)
T2 construct: expressed in transfected cells; host or cells: HEK293 cells infected with BacMam (the same paragraph also labels the preparation CHO-hA1)
T2 sequence (P30542 1-326): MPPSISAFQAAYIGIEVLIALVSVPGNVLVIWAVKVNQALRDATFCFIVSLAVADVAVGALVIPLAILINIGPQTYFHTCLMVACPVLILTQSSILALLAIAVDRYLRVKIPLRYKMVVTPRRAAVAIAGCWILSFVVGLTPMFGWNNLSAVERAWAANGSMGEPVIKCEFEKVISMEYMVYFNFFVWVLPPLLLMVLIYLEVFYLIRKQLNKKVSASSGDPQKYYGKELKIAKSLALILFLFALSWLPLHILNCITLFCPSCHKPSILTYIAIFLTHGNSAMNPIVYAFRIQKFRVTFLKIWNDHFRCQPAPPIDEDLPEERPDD
Method in brief: as §1

T1 sequence (P29274 whole entry): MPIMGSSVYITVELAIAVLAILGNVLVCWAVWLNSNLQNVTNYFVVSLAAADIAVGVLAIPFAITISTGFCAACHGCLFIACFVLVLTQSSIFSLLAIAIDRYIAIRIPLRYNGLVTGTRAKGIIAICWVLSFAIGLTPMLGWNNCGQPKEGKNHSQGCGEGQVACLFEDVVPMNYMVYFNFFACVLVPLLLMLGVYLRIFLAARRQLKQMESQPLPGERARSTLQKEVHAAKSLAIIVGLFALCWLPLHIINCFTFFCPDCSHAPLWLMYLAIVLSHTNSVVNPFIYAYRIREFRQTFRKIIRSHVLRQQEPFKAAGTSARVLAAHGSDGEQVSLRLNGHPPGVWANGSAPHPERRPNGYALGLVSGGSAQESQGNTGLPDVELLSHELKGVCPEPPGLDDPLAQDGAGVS

SMILES | Ki [1] | Ki [2]
Cc1cc(-c2c(-c3ccccc3)nc(N)n3c(=O)n(C[C@@H]4CN(C(=O)OC(C)(C)C)CCN4C)nc23)cc(C)n1 [Example 2-83, tert-butyl (S)-3-((5-amino-8-(2,6-dimethylpyridin-4-yl)-3-oxo-7-phenyl-[1,2,4]triazolo[4,3-c]pyrimidin-2(3H)-yl)methyl)-4-methylpiperazine-1-carboxylate] | 10 nM | 1000 nM
COc1cccc(Cn2nc3c(-c4cc(C)nc(C)c4)c(-c4ccccc4)nc(N)n3c2=O)n1 [Example 1-6, 5-amino-8-(2,6-dimethyl-4-pyridyl)-2-[(6-methoxy-2-pyridyl)methyl]-7-phenyl-[1,2,4]triazolo[4,3-c]pyrimidin-3-one] | 0.794 nM | 200 nM
CC#Cc1nc(N)n2c(=O)n(CCC(F)(F)F)nc2c1-c1cc(C)nc(C)c1 [Example 3-7, 5-amino-8-(2,6-dimethyl-4-pyridyl)-7-prop-1-ynyl-2-(3,3,3-trifluoropropyl)-[1,2,4]triazolo[4,3-c]pyrimidin-3-one] | 31.6 nM | > 3980 nM
CCOc1nc(N)n2c(=O)n(CCC(F)(F)F)nc2c1-c1cc(C)nc(C)c1 [Example 3-3, 5-amino-8-(2,6-dimethyl-4-pyridyl)-7-ethoxy-2-(3,3,3-trifluoropropyl)-[1,2,4]triazolo[4,3-c]pyrimidin-3-one] | 158 nM | > 3160 nM
Cc1cc(-c2c(-c3ccccc3)nc(N)n3c(=O)n(CCOS(C)(=O)=O)nc23)cc(C)n1 [Example 2-9, 2-[5-amino-8-(2,6-dimethyl-4-pyridyl)-3-oxo-7-phenyl-[1,2,4]triazolo[4,3-c]pyrimidin-2-yl]ethyl methanesulfonate] | 20 nM | 631 nM
CCC(c1ccc(F)cn1)n1nc2c(-c3cc(C)nc(CO)c3)c(-c3ccccc3)nc(N)n2c1=O (single isomer, unassigned) [1-46 iso-1, 5-amino-2-[1-(5-fluoro-2-pyridyl)propyl]-8-[2-(hydroxymethyl)-6-methyl-4-pyridyl]-7-phenyl-[1,2,4]triazolo[4,3-c]pyrimidin-3-one] | 398 nM | > 3160 nM
Cc1cc(-c2c(-c3ccccc3)nc(N)n3c(=O)n(CC45CC(F)(C4)C5)nc23)cc(CO)n1 [Example 2-59, 5-amino-2-[(3-fluoro-1-bicyclo[1.1.1]pentanyl)methyl]-8-[2-(hydroxymethyl)-6-methyl-4-pyridyl]-7-phenyl-[1,2,4]triazolo[4,3-c]pyrimidin-3-one] | 3.98 nM | 316 nM
Cc1cc(-c2c(-c3ccccc3)nc(N)n3c(=O)n(CCO)nc23)cc(C)n1 [Example 2-7, 5-amino-8-(2,6-dimethyl-4-pyridyl)-2-(2-hydroxyethyl)-7-phenyl-[1,2,4]triazolo[4,3-c]pyrimidin-3-one] | 100 nM | 1000 nM
Cc1ccc(Cn2nc3c(-c4cc(C)nc(CO)c4)c(-c4ccc(F)cc4)nc(N)n3c2=O)nc1 [Example 1-61, 5-amino-7-(4-fluorophenyl)-8-[2-(hydroxymethyl)-6-methyl-4-pyridyl]-2-[(5-methyl-2-pyridyl)methyl]-[1,2,4]triazolo[4,3-c]pyrimidin-3-one] | 1.58 nM | > 1580 nM
Cc1cc(-c2c(-c3ccccc3)nc(N)n3c(=O)n(CCN4C[C@@H](C)O[C@@H](C)C4)nc23)cc(C)n1 [Example 2-100, 5-amino-2-[2-((ds)-2,6-dimethylmorpholin-4-yl)ethyl]-8-(2,6-dimethyl-4-pyridyl)-7-phenyl-[1,2,4]triazolo[4,3-c]pyrimidin-3-one] | 316 nM | > 3160 nM
[2H]c1c([2H])c([2H])c(-c2nc(N)n3c(=O)n(CCC(F)(F)F)nc3c2-c2cc(C)nc(CO)c2)c([2H])c1[2H] [Example 2-61, 5-amino-8-[2-(hydroxymethyl)-6-methyl-4-pyridyl]-7-(2,3,4,5,6-pentadeuteriophenyl)-2-(3,3,3-trifluoropropyl)-[1,2,4]triazolo[4,3-c]pyrimidin-3-one] | 1.26 nM | 631 nM
COC(=O)c1cc(-c2c(-c3ccccc3)nc(N)n3c(=O)n(CCC(F)(F)F)nc23)cc(C)n1 [Example 2-52, methyl 4-[5-amino-3-oxo-7-phenyl-2-(3,3,3-trifluoropropyl)-[1,2,4]triazolo[4,3-c]pyrimidin-8-yl]-6-methyl-pyridine-2-carboxylate] | 0.631 nM | 200 nM
Cc1cc(-c2c(-c3ccc(F)cc3)nc(N)n3c(=O)n(Cc4ccc(Cl)cn4)nc23)cc(CO)n1 [Example 1-62, 5-amino-2-[(5-chloro-2-pyridyl)methyl]-7-(4-fluorophenyl)-8-[2-(hydroxymethyl)-6-methyl-4-pyridyl]-[1,2,4]triazolo[4,3-c]pyrimidin-3-one] | 3.98 nM | 1000 nM
Cc1cc(-c2c(-c3ccccc3)nc(N)n3c(=O)n([C@@H]4CCCc5ccc(F)cc54)nc23)cc(C)n1 [Example 1-14, (R)-5-amino-8-(2,6-dimethyl-4-pyridyl)-2-(7-fluorotetralin-1-yl)-7-phenyl-[1,2,4]triazolo[4,3-c]pyrimidin-3-one] | 3.16 nM | 20 nM
COc1cc(-c2c(-c3ccccc3)nc(N)n3c(=O)n(Cc4ccc(F)cn4)nc23)cc(CO)n1 [Example 1-73, 5-amino-2-[(5-fluoro-2-pyridyl)methyl]-8-[2-(hydroxymethyl)-6-methoxy-4-pyridyl]-7-phenyl-[1,2,4]triazolo[4,3-c]pyrimidin-3-one] | 2.51 nM | 398 nM
COC(=O)CCn1nc2c(-c3cc(C)nc(C)c3)c(-c3ccccc3)nc(N)n2c1=O [Example 2-15, methyl 3-[5-amino-8-(2,6-dimethyl-4-pyridyl)-3-oxo-7-phenyl-[1,2,4]triazolo[4,3-c]pyrimidin-2-yl]propanoate] | 5.01 nM | 501 nM
Cc1cc(-c2c(-c3ccccc3)nc(N)n3c(=O)n(Cc4ccc(F)c(=O)n4C)nc23)cc(C)n1 [Example 1-10, 5-amino-8-(2,6-dimethyl-4-pyridyl)-2-[(5-fluoro-1-methyl-6-oxo-2-pyridyl)methyl]-7-phenyl-[1,2,4]triazolo[4,3-c]pyrimidin-3-one] | 20 nM | 794 nM
COc1cnc(Cn2nc3c(-c4cc(C)nc(CO)c4)c(-c4ccccc4)nc(N)n3c2=O)c(F)c1 [Example 1-47, 5-amino-2-[(3-fluoro-5-methoxy-2-pyridyl)methyl]-8-[2-(hydroxymethyl)-6-methyl-4-pyridyl]-7-phenyl-[1,2,4]triazolo[4,3-c]pyrimidin-3-one] | 7.94 nM | 501 nM
Cc1cc(-c2c(-c3ccccc3)nc(N)n3c(=O)n(CCc4ccccc4)nc23)cc(C(F)(F)F)n1 [Example 1-88, 5-amino-8-[2-methyl-6-(trifluoromethyl)-4-pyridyl]-7-phenyl-2-(2-phenylethyl)-[1,2,4]triazolo[4,3-c]pyrimidin-3-one] | 12.6 nM | 100 nM
Cc1cc(-c2c(-c3ccc(F)cc3)nc(N)n3c(=O)n(CCC(F)(F)F)nc23)cc(C)[n+]1[O-] [Example 2-58, 5-amino-8-(2,6-dimethyl-1-oxido-pyridin-1-ium-4-yl)-7-(4-fluorophenyl)-2-(3,3,3-trifluoropropyl)-[1,2,4]triazolo[4,3-c]pyrimidin-3-one] | 50.1 nM | 1000 nM
Cc1cc(-c2c(-c3ccccc3)nc(N)n3c(=O)n(C4CCCNC4)nc23)cc(C)n1 (centres unmarked) [Example 2-55, 5-amino-8-(2,6-dimethyl-4-pyridyl)-7-phenyl-2-(3-piperidyl)-[1,2,4]triazolo[4,3-c]pyrimidin-3-one] | 251 nM | > 3160 nM
Cc1cc(-c2c(N3CCOCC3)nc(N)n3c(=O)n(CCC(F)(F)F)nc23)cc(C)n1 [Example 3-1, 5-amino-8-(2,6-dimethyl-4-pyridyl)-7-morpholino-2-(3,3,3-trifluoropropyl)-[1,2,4]triazolo[4,3-c]pyrimidin-3-one] | 316 nM | > 3160 nM
COC(=O)c1nc(N)n2c(=O)n(CCC(F)(F)F)nc2c1-c1cc(C)nc(C)c1 [Example 3-6, methyl 5-amino-8-(2,6-dimethyl-4-pyridyl)-3-oxo-2-(3,3,3-trifluoropropyl)-[1,2,4]triazolo[4,3-c]pyrimidine-7-carboxylate] | 200 nM | > 3160 nM
CCC(c1ccc(F)cn1)n1nc2c(-c3cc(C)nc(C)c3)c(-c3ccccc3)nc(N)n2c1=O (single isomer, unassigned) [Example 1-38-iso-2, 5-amino-8-(2,6-dimethyl-4-pyridyl)-2-[1-(5-fluoro-2-pyridyl)propyl]-7-phenyl-[1,2,4]triazolo[4,3-c]pyrimidin-3-one] | 200 nM | > 2000 nM
Cc1cc(-c2c(-c3ccccc3)nc(N)n3c(=O)n(Cc4ccccc4CN(C)C)nc23)cc(C)n1 [Example 1-24, 5-amino-2-[[2-[(dimethylamino)methyl]phenyl]methyl]-8-(2,6-dimethyl-4-pyridyl)-7-phenyl-[1,2,4]triazolo[4,3-c]pyrimidin-3-one] | 0.126 nM | 15.8 nM
